In ChEMBL document CHEMBL3044784, “Molecular Basis of Resistance to s-Triazine Herbicides in Poa annua L. and Its Photosynthetic Properties under Different Light Conditions” (J Pestic Sci, 2001):
The source made the active and inactive calls. The rule behind the calls is not given here.

How the values were obtained:
Poa annua [1] = assay: Pre-emergence herbicidal activity against s-triazine-resistant Poa annua at 0.5 kg/ha after 14 days by pot test; type: functional, organism-based
Poa annua [2] = assay: Pre-emergence herbicidal activity against s-triazine-resistant Poa annua at 0.10 kg/ha after 14 days by pot test; type: functional, organism-based
Poa annua [3] = assay: Pre-emergence herbicidal activity against s-triazine-susceptible Poa annua at 0.5 kg/ha after 14 days by pot test; type: functional, organism-based
Poa annua [4] = assay: Pre-emergence herbicidal activity against s-triazine-resistant Poa annua at 0.25 kg/ha after 14 days by pot test; type: functional, organism-based
Poa annua [5] = assay: Pre-emergence herbicidal activity against s-triazine-resistant Poa annua at 1 kg/ha after 14 days by pot test; type: functional, organism-based
Poa annua [6] = assay: Herbicidal activity against hydroponic culture of s-triazine-susceptible Poa annua at 100 ppm after 14 days; type: functional, organism-based
Poa annua [7] = assay: Herbicidal activity against hydroponic culture of s-triazine-resistant Poa annua at 0.1 ppm after 14 days; type: functional, organism-based
Poa annua [8] = assay: Herbicidal activity against hydroponic culture of s-triazine-resistant Poa annua at 1 ppm after 14 days; type: functional, organism-based
Poa annua [9] = assay: Pre-emergence herbicidal activity against s-triazine-susceptible Poa annua at 1 kg/ha after 14 days by pot test; type: functional, organism-based
Poa annua [10] = assay: Herbicidal activity against hydroponic culture of s-triazine-susceptible Poa annua at 1000 ppm after 14 days; type: functional, organism-based
Poa annua [11] = assay: Pre-emergence herbicidal activity against s-triazine-resistant Poa annua at 0.05 kg/ha after 14 days by pot test; type: functional, organism-based
Poa annua [12] = assay: Herbicidal activity against hydroponic culture of s-triazine-resistant Poa annua at 10 ppm after 14 days; type: functional, organism-based
Poa annua [13] = assay: Herbicidal activity against hydroponic culture of s-triazine-resistant Poa annua at 1000 ppm after 14 days; type: functional, organism-based
Poa annua [14] = assay: Herbicidal activity against hydroponic culture of s-triazine-resistant Poa annua at 100 ppm after 14 days; type: functional, organism-based
Poa annua [15] = assay: Pre-emergence herbicidal activity against s-triazine-susceptible Poa annua at 0.05 kg/ha after 14 days by pot test; type: functional, organism-based
Photosystem Q(B) protein [16] = biological target: T1, Photosystem Q(B) protein (Poa annua, UniProt Q9XQA6); assay: Inhibition of photosystem II in s-triazine-resistant Poa annua leaf thylakoid membrane assessed as reduction of photosynthetic electron transport; settings: read-out: I50
Photosystem Q(B) protein [17] = biological target: T1, Photosystem Q(B) protein; assay: Inhibition ofphotosystem II in s-triazine-susceptible Poa annua leaf thylakoid membrane assessed as reduction of photosynthetic electron transport; settings: read-out: I50
[18] = biological target: Photosystem Q(B) protein (Poa annua) (UniProt Q9XQA6); assay: Resistant ratio, ratio of I50 for photosystem II in s-triazine-resistant Poa annua leaf thylakoid membrane to I50 for photosystem II in s-triazine-susceptible Poa annua leaf thylakoid membrane
Poa annua [19] = assay: Herbicidal activity against hydroponic culture of s-triazine-susceptible Poa annua at 10 ppm after 14 days; type: functional, organism-based
Poa annua [20] = assay: Herbicidal activity against hydroponic culture of s-triazine-susceptible Poa annua at 0.1 ppm after 14 days; type: functional, organism-based
Poa annua [21] = assay: Herbicidal activity against hydroponic culture of s-triazine-susceptible Poa annua at 1 ppm after 14 days; type: functional, organism-based

Row | SMILES | Activity (Poa annua [1]) | Activity (Poa annua [2]) | Activity (Poa annua [3]) | Activity (Poa annua [4]) | Activity (Poa annua [5]) | Activity (Poa annua [6]) | Activity (Poa annua [7]) | Activity (Poa annua [8]) | Activity (Poa annua [9]) | Activity (Poa annua [10]) | Activity (Poa annua [11]) | Activity (Poa annua [12]) | Activity (Poa annua [13]) | Activity (Poa annua [14]) | IC50 (Photosystem Q(B) protein [16]) [nM] | IC50 (Photosystem Q(B) protein [17]) [nM] | Ratio [18] | further results
1 | CCNc1nc(Cl)nc(NC(C)(C)C#N)n1 | inactive | inactive | Active | inactive | inactive | inactive | inactive | inactive | Active | inactive | inactive |  |  |  |  |  |  | 
2 | CCNc1nc(Cl)nc(NCC)n1 | inactive | inactive | inactive | inactive | inactive |  | inactive | inactive | Active | Active | inactive | inactive | inactive | inactive |  |  |  | 
3 | CCNc1nc(NCC)nc(SC)n1 | inactive | inactive |  | inactive | inactive | Active | inactive | inactive |  | Active | inactive |  |  |  |  |  |  | Activity (Poa annua [15]): inactive
4 | CSc1nc(NC(C)C)nc(NC(C)C)n1 | inactive | inactive |  | inactive | inactive |  | inactive | inactive |  | Active | inactive | inactive | inactive | inactive |  |  |  | 
5 | CCNc1nc(Cl)nc(NC(C)C)n1 [ATRAZINE] | inactive | inactive | Active | inactive | inactive | Active | inactive | inactive | Active | Active | inactive | inactive |  | inactive | > 100000 | 160 | > 625 | 
6 | CN(C)C(=O)Nc1ccc(Cl)c(Cl)c1 [DCMU] |  |  | Active |  | Active | Active | inactive |  | Active | Active |  | Active | Active | Active | 400 | 130 | 3.1 | Activity (Poa annua [19]): Active; Activity (Poa annua [20]): inactive
7 | CCC(C)c1cc([N+](=O)[O-])cc([N+](=O)[O-])c1O (centres undefined) [DINOSEB] |  |  |  |  | Active | Active | inactive |  |  | Active |  | Active | Active | Active | 400 | 4000 | 0.1 | Activity (Poa annua [21]): inactive; Activity (Poa annua [20]): inactive
8 | O=c1[nH]c2c(c(=O)n1C1CCCCC1)CCC2 [LENACIL] |  |  | Active |  |  |  | inactive | inactive | Active | Active | inactive | inactive | inactive | inactive | 20000 | 1000 | 20 | 
